Reference: US20260191803A1, “SYSTEM AND METHOD FOR THE TREATMENT OF TELOGEN EFFLUVIUM AND CHEMOTHERAPY INDUCED ALOPECIA” (Follea International, priority 2025, published 2026)

System: hair shedding
Assay: Example 5: hair shedding, hairs removed with brush after 10% phenylephrine or placebo
Type: in vivo, human
Conditions: average of 15 patients; versus placebo
Text: Patients: Fifteen female subjects, ages 18-40, were included in the study. Subjects were recruited based on telogen effluvium diagnosis. Subjects with uncontrolled hypertension, that were pregnant or breastfeeding, had been diagnosed with pattern hair loss or with other hair loss in conjunction with female pattern hair loss were excluded from the study.
Hair Shedding: To measure hair shedding, a 4-day protocol was designed. On the first day patients were instructed to wash their hair and use styling products and procedures as they normally would. On the second day, patients were instructed not to wash their hair and to apply 0.5 mL of a placebo solution, containing a vehicle only, on the frontal area of the scalp in an 8×10 cm2 target area. Patients were instructed to wait 45 minutes, after which, they brushed their hair 20 times from the front of the scalp to the bottom of head using a new brush. After the procedure, the brushes were sealed in a plastic bag. On day three, patients were instructed to wash their hair and use styling products and procedures as they normally would. […] After each clinical procedure, the investigator counted the hairs collected on each brush. A new brush was used for each procedure.

## CNC[C@H](O)c1cccc(O)c1 [phenylephrine]
  Average reduction in hair loss: approximately 42%
